Data from US5919799A, “Imidazothiazole compound” (Nikken Chemicals Co., Ltd., priority 1995, dated 1999).
Structures can show the parent of a compound that is named as a salt.

Columns and labels:
[1] = Acute toxicity test (b), intraperitoneal, five mice per group; settings: mouse, in vivo, ip, groups of five, 1000 mg to 250 mg/kg
Description: (§1) (a) Animals used: ICR male mice (Charles River Japan), 7 to 8 weeks old, were used three to a group.
(§2) Test method: The compound of the present invention was suspended in 0.5% sodium carboxymethyl cellulose(CMC-Na) containing 0.1% Tween 80. […] The survival of the animals was examined up to 7 days after administration, then the Van Der Wearder area method was used to calculate the LD50 value.
(b) Groups of five mice were tested in the same way as in (a) except that the drug was administered intraperitoneally from 1000 mg by a rate of 1/√2 until 250 mg/kg.

[2] = system: VJ-300 cells (multidrug resistant clones of KB cells); experiment: In vitro suppression of proliferation of VJ-300 cells by co-administration with vincristine; assay type: cell-based, Human; settings: co-administered VCR and test compound (1 μg/ml), relative to VCR alone in KB = 1
Description: (§3) As the incubation solution, an Eagle MEM medium (made by Nissui Seiyakusha) containing 10% fetal calf serum (made by Flow Laboratories Co.) and 0.292 mg/ml L-glutamine (made by Flow Laboratories Co.) was used. The action overcoming resistance to an anti-neoplastic agent and effect in enforcing the effect of an anti-neoplastic agent obtained through co-administration of the anti-neoplastic agent doxorubicin (adriamycin, ADM) and the test compounds were tested as follows:
The test cells were suspended in the incubation medium and adjusted to a cell density of about 200 cells/ml. 2 ml portions of the cell suspension were placed in petri dishes and incubated in a carbon dioxide gas incubator (5% CO2, 95% air) at 37° C. for 24 hours. Next, predetermined concentrations of aqueous ADM solutions and dimethyl sulfoxide (DMSO) solutions of predetermined concentrations of the test compounds were added into 5 to 10 μl portions, then incubation was continued for 7 days. After the end of the incubation, the samples were fixed by methanol, Giemsa staining was performed, the number of colonies in each dish was counted, and a volume reaction curve was prepared. This was used to calculate the ADM concentration at a 50% cell survival rate (LD50) and judge the action overcoming resistance to an anti-neoplastic agent and effect in enhancing the effect of an anti-neoplastic agent.
The LD50 concentration of ADM in the ADM control group for KB cells was shown as the resistance degree "1" and the other LD50 concentrations were indexed against this to calculate the resistance degrees. In Table 2, ADM alone (control) is the group administered ADM alone, ADM+Compound 1 is the group co-administered ADM and Compound 1 (1 μg /ml) and so on down to ADM+Compound 19 which is the group co-administered ADM and Compound 19 (1 μg /ml).
A volume reaction curve was prepared and the resistance calculated. In the Tables, VCR alone (control) is the group administered VCR alone, VCR+Compound 1 is the group co-administered VCR and Compound 1(1 μg /ml) and so on down to VCR+Compound 16 which is the group co-administered VCR and Compound 16 (1 μg/ml).

[3] = system: VCR resistant murine leukemia (P388/VCR) cells; experiment: In vivo effect of overcoming resistance with etoposide (VP-16) in P388/VCR bearing mice (intravenous); set-up: species or system CDF1 male mice; settings: VP-16 (3 mg/kg) + compound (40 mg/kg), i.v., five days; for Effect overcoming resistance (T/V %): vs VP-16 alone; for Rate of prolongation of life (T/C %): vs non-administered control
Description: (b) Separately, groups of six CDF1 male mice were intravenously given transplants of 1.2×10^5 VCR resistant murine leukemia (P388/VCR) cells. The compound of the present invention (20 or 40 mg/kg) was dissolved in 0.01N hydrochloric acid. Etoposide (VP-16, 3 mg/kg) was dissolved in a physiological saline solution. These were administered intravenously for five days and the days of survival were found. In the same way as (a), the rate of prolongation of life with respect to the control (T/C) and the effect in overcoming the resistance to an anti-neoplastic agent (T/V) were found. In Table 6, the control is the non-administered group, VP-16 alone is the group administered VP-16 (3 mg/kg) and VP-16+Compound 5 is the group co-administered VP-16 (3 mg/kg) and Compound 5 (40 mg/kg) and so on to VP-16+Compound 16 which is the group co-administered VP-16 (3 mg/kg) and Compound 16 (40 mg/kg).

[4] = system: VJ-300 cells (multidrug resistant clones of KB cells); experiment: In vitro suppression of proliferation (colony formation) of VJ-300 cells by co-administration with doxorubicin; assay type: cell-based, Human; settings: ADM alone (Control); relative to KB = 1
Description: In Vitro Test of Effect of Suppression of Proliferation of Cancer Cells by Co-Administration with Doxorubicin
as §3, with “Human epipharynx cancer derived cancer KB cells (sensitive cells) and their multidrug resistant clones VJ-300 cells (resistant cells) were used as test cells. As” for “As”
The test cells were suspended in the incubation medium and adjusted to a cell density of about 200 cells/ml. 2 ml portions of the cell suspension were placed in petri dishes and incubated in a carbon dioxide gas incubator (5% CO2, 95% air) at 37° C. for 24 hours. […] After the end of the incubation, the samples were fixed by methanol, Giemsa staining was performed, the number of colonies in each dish was counted, and a volume reaction curve was prepared. […]

[5] = system: VCR resistant murine leukemic (P388/VCR) cells; experiment: In vivo effect of overcoming resistance to vincristine in VCR resistant murine leukemia cell bearing mice (intraperitoneal); set-up: species or system CDF1 male mice; settings: VCR (100 μg/kg) + compound (100 mg/kg), i.p., 5 days
Description: (a) 10^6 VCR resistant murine leukemic (P388/VCR) cells were transplanted intraperitoneally to groups of six CDF1 male mice. The compound of the present invention (10 or 100 mg/kg) was suspended in 0.5% sodium carboxymethyl cellulose containing 0.1% Tween 80, while the VCR (100 μg/kg) was dissolved in physiological saline. These were each administered intraperitoneally over 5 days and the mice observed to find the days of survival and the rate of prolongation of life with respect to the control (T/C). The effect in overcoming resistance to an anti-neoplastic agent (T/V) was found from the following formula:
Effect in overcoming resistance to anti-neoplastic agent (T/V%)=(Rate of prolongation of life when co-administering VCR and compound of present invention (T/C%))/(Rate of prolongation of life by VCR alone
In Table 5, "Control" is the non-administered group, VCR alone is the group administered just VCR (100 μg /kg), VCR+Compound 1 is the group co-administered VCR (100 μg /kg) and Compound 1 (100 mg/kg) and so on to VCR+Compound 14* which is the group co-administered VCR (100 μg /kg) and Compound 14 (10 mg/kg).

[6] = Acute toxicity test (a), intraperitoneal, three animals per group; settings: mouse, in vivo, ip, ICR male mice, up to 7 days after administration
Source text: as §1, §2

Row | Structure (SMILES) | LD50 at 168 h [1] | Resistance with VCR, VJ-300 (resistance degree) ([2]; Table 4) | Days of survival [3] | Effect overcoming resistance (T/V %) [3] | Rate of prolongation of life (T/C %) [3] | Resistance at ADM, VJ-300 (resistance degree) [4] | Resistance with VCR, VJ-300 (resistance degree) ([2]; Table 3) | Days of survival [5] | Effect overcoming resistance (T/V %) ([5]; vs VCR alone) | Rate of prolongation of life (T/C %) ([5]; vs non-administered control) | LD50 at 168 h [6]
1 | CN1CCCC(C(=O)NN=Cc2c(-c3ccccc3)nc3sc4ccccc4n23)C1 (stereo not shown) [Compound 15, 2-phenyl-3-[N-methyl-3-piperidylcarbonylaminoiminomethyl]imidazo[2,1-b]benzothiazole hydrochloride] | ≥ 1000 mg/kg | 3.1 | 13.0 days | 116% | 126% | – | – | – | – | – | –
2 | CCCN1CCCC(C(=O)NN=Cc2c(-c3ccccc3)nc3sc4c(n23)CCCC4)C1 (stereo not shown) [Compound 12, 5,6,7,8-tetrahydro-2-phenyl-3-[N-propyl-3-piperidylcarbonylaminoiminomethyl]imidazo[2,1-b]benzothiazole hydrochloride] | 592 mg/kg | 1.3 | 13.2 days | 118% | 128% | – | – | – | – | – | –
3 | COc1cccc2c1C(=O)c1c(O)c3c(c(O)c1C2=O)C[C@@](O)(C(=O)CO)C[C@@H]3O[C@H]1C[C@H](N)[C@H](O)[C@H](C)O1 [ADM, doxorubicin] | – | – | – | – | – | 46.7 | – | – | – | – | –
4 | CN1CCCC(C(=O)NN=Cc2c(-c3ccccc3)nc3sc4c(n23)CCCC4)C1 (stereo not shown) [Compound 5, 5,6,7,8-tetrahydro-2-phenyl-3-(N-methyl-3-piperidylcarbonylaminoiminomethyl)imidazo[2,1-b]benzothiazole] | – | – | 14.0 days | 125% | 136% | – | 1.2 | 14.38 days | 130% | 138% | 604 mg/kg
